Measurements from article PMC11109052, “Metabolism characterization and toxicity of N-hydap, a marine candidate drug for lung cancer therapy by LC–MS method” (Natural Products and Bioprospecting, 2024).
One block for each molecule: values may come before it.

How the values were obtained:
SCLC = system: SCLC; parameters: method as in PMID 33683919; settings: 3rd-line therapy of SCLC; cited from earlier work
[1] = Pharmacokinetics studies in mice (plasma); assay type: in vivo; settings: mice
Protocol: Mice were fasted for 12 h with access to water before drug administration. N-Hydap was dissolved in a solution containing 50% methanol and water. Before administration, the drug was diluted with PBS to achieve concentrations of 5 mg/kg and 2 mg/kg for gastric gavage and tail vein administration, respectively. Blood samples (120 μL) were collected from the orbital venous plexus at 2, 5, 10, 15, 30, 60, 90, 120, 180, and 240 min after N-hydap administration. The blood samples were collected into heparinized micro-centrifuge tubes and immediately centrifuged at 8000 rpm for 5 min at 4 °C. Plasma samples were prepared by adding an internal standard (IS) solution, Tes to the samples, followed by vortexing. The mixtures were then centrifuged at 4 °C and 13,000 rpm for 15 min. The resulting supernatant was dried under vacuum for 3–4 h, and the dry powder was reconstituted with a solution of 50% methanol and water. Finally, the plasma samples were analyzed using LC–MS, following the previously described method.
DAS 2.0 was used to calculate pharmacokinetic parameters using the standard non-compartmental method. All results were presented as mean ± standard deviation and significant differences were analyzed using One-way ANOVA by GraphPad Prism 8. Statistical significance was defined as p < 0.05.

UGT1A3 = biological target: T1, UGT1A3 (Homo sapiens, UniProt P35503); experiment: Kinetics of N-hydap glucuronidation by recombinant UGT1A3; assay type: in vitro ADME
T1 construct: purchased Cypex (Scotland, UK)

HKMs = experiment: Kinetics of N-hydap glucuronidation in HKMs; assay type: in vitro ADME, human; settings: HKM
Protocol: (§1) Various microsomes including HLMs, HKMs, HIMs, RLMs, RKMs, MLMs and MKMs were involved in CYP and UGT reactions of N-hydap. A typical CYP incubation mixture included 0.5 mg/mL microsomes protein, 3.3 mM glucose-6-phosphate, 3.3 mM MgCl2, 0.4 U/mL glucose-6-phosphate dehydrogenase, and N-hydap (1, 2.5, or 10 μM) in the 50 mM potassium phosphate buffer (KPI, pH 7.4). The incubation mixture was preincubated at 37 °C for 5 min, and the reaction was started by adding NADP to form a NADPH-regenerating system. Simultaneously, the classic UGT reaction system consisted of 50 mM KPI, 5 mM MgCl2, 0.5 mg/mL microsomes, 0.125 mg/mL alamethicin, and 5.25 mg/mL saccharolactone. The reaction was initiated after supplying UDPGA. The CYP and UGT mixtures were incubated at 37 °C in a shaking water bath (80 rpm) for 1.5 h to enhance metabolite formation. To terminate the reaction, an ice-cold solution of Tes (50 ng/mL, dissolved in methanol and used as an internal standard) was added to half of the mixture volume. […]
(§2) The substrate concentrations used for HLMs were 0.05, 0.5, 2, 2.5, 5, 10, 25, 50, and 100 μM. […] The rates of N-hydap-G by enzymes were expressed as nmol/mg/min, representing the amount of metabolites formed per minute per milligram of protein. Kinetic parameters were determined by analyzing the Eadie–Hofstee plots. […]

UGT1A1 = biological target: T2, UGT1A1 (Homo sapiens, UniProt P22309); experiment: Kinetics of N-hydap glucuronidation by recombinant UGT1A1; assay type: in vitro ADME
T2 construct: purchased Cypex (Scotland, UK)

RKMs = experiment: Kinetics of N-hydap glucuronidation in RKMs; assay type: in vitro ADME, rat; settings: RKM
Protocol: (§3) In this study, the rats were executed by drawing blood from the abdominal aorta and mice were sacrificed with cervical dislocation before the liver and kidneys were excised. The liver and kidneys were removed, and washed with chilled cleansing solution (contains 8 mM KH2PO4, 5.6 mM EDTA·K2·2H2O, 1 mM DTT and 229.6 μM PMSF), homogenized in a tissue homogenate buffer with a pH of 7.4, (consisting of […], 8 mM K2HPO4, 250 mM sucrose, 1 mM EDTA·K2·2H2O and 229.6 μM PMSF). Subsequently, the homogenate was centrifuged at 10,400 rpm at 4 °C for 15 min, and the supernatant was then centrifuged at 35,000 rpm at 4 °C for 60 min. A 250 mM sucrose buffer was added to the pellet to reconstitute and the resuspension was stored at − 80 °C until use. Microsome protein concentrations were measured by Omni-Easy™ Instant BCA Protein Assay Kit.
(§4) Various microsomes including HLMs, HKMs, HIMs, RLMs, RKMs, MLMs and MKMs were involved in CYP and UGT reactions of N-hydap. […]
as §2

HIMs = experiment: Kinetics of N-hydap glucuronidation in HIMs; assay type: in vitro ADME, human; settings: HIM
Protocol: as §1, §2

RLMs = experiment: Kinetics of N-hydap glucuronidation in RLMs; assay type: in vitro ADME, rat; settings: RLM
Protocol: as §3, §4, §2

MLMs = experiment: Kinetics of N-hydap glucuronidation in MLMs; assay type: in vitro ADME, mouse; settings: MLM
Protocol: as §3, §4, §2

[2] = Distribution studies in mice organs; assay type: in vivo; settings: 30 min and 4 h
Protocol: The heart, liver, spleen, lungs and kidneys were removed from mice after administering a dose of 5 mg/kg through oral gavage and 2 mg/kg through tail vein injection at 30 min and 240 min, followed by homogenization with normal saline. The resulting homogenate was centrifuged at 4 °C, 13,000 rpm for 20 min, and the supernatant was then mixed with the internal standard by vortexing. The mixtures were centrifuged at 4 °C, 13,000 rpm for 15 min. The resulting supernatant was then subjected to vacuum drying for 3–4 h. Lastly, the dried powder was reconstituted with a mixture of 50% methanol and water, and then centrifuged for LC–MS testing.

HLMs = experiment: Kinetics of N-hydap glucuronidation in HLMs; assay type: in vitro ADME, human; settings: HLM
Protocol: as §1, §2

other UGT isoforms = experiment: Incubation with recombinant human UGT isoforms: other isoforms; assay type: in vitro ADME; settings: recombinant UGT 2 μg/mL
Protocol: Incubation of N-hydap (2.5 μM) with eight recombinant human CYP enzymes (CYP1A2, CYP2B6, CYP2C9, CYP2C19, CYP2D6, CYP3A4, CYP4A11 and CYP4F2) at three enzyme concentrations (2, 4, and 20 μg/mL) was conducted following the same procedure as described above for microsomes. Subsequently, incubation with N-hydap (1, 2.5, and 6 μM) and twelve recombinant human UGT isoforms (UGT1A1, UGT1A3, UGT1A4, UGT1A6, UGT1A7, UGT1A8, UGT1A9, UGT1A10, UGT2B4, UGT2B7, UGT2B15 and UGT2B17) was performed, with the enzyme concentration used at 2 μg/mL. All reactions were carried out in triplicate.

MKMs = experiment: Kinetics of N-hydap glucuronidation in MKMs; assay type: in vitro ADME, mouse; settings: MKM
Protocol: as §3, §4, §2

[3] = parameters: method as in PMID 17513814; settings: 2nd-line therapy of SCLC; cited from earlier work
[4] = substrate: CC1CCC2C(C=CC(C)C2C(=O)c2c(O)c(C3(O)CCC(O)C4OC43)cn(O)c2=O)C1; experiment: Kinetics of N-hydap glucuronidation by recombinant UGT1A3; assay type: in vitro ADME, human; settings: other: glucuronidation, pH 7.4, 37.0 °C
[5] = substrate: CC1CCC2C(C=CC(C)C2C(=O)c2c(O)c(C3(O)CCC(O)C4OC43)cn(O)c2=O)C1; experiment: Kinetics of N-hydap glucuronidation by recombinant UGT1A1; assay type: in vitro ADME, human; settings: other: glucuronidation, pH 7.4, 37.0 °C

Molecule: nivolumab: 3rd-line therapy for SCLC
overall survival (SCLC): does not prolong overall survival

highest concentration in plasma, Rate (Am/Ai) ([1]; after oral administration of N-hydap 5 mg/kg): 1.632
highest concentration in plasma, Rate (Am/Ai) ([1]; after tail vein injection of N-hydap 2 mg/kg): 0.085
maximum plasma concentration after oral gavage relative to intravenous injection, dose-corrected ([1]; 1.632/0.085/2.5): 7.68 times
Vmax (UGT1A3): 10.07 ± 0.98 peak area ratio/min/mg
Vmax (UGT1A1): 4.596 ± 0.37 peak area ratio/min/mg
total distribution ratio, heart ([2]; oral 5 mg/kg): 2.61%
total distribution ratio, kidneys ([2]; oral 5 mg/kg): 17.64%
total distribution ratio, liver ([2]; oral 5 mg/kg): 70.86%
total distribution ratio, lungs ([2]; oral 5 mg/kg): 7.33%
total distribution ratio, spleen ([2]; oral 5 mg/kg): 1.56%
total distribution ratio, heart ([2]; tail vein injection 2 mg/kg): 11.92%
total distribution ratio, kidneys ([2]; tail vein injection 2 mg/kg): 16.73%
total distribution ratio, liver ([2]; tail vein injection 2 mg/kg): 56.90%
total distribution ratio, lungs ([2]; tail vein injection 2 mg/kg): 9.14%
total distribution ratio, spleen ([2]; tail vein injection 2 mg/kg): 5.31%
glucuronide detected after incubation with other UGT isoforms (other UGT isoforms): negligible amount
Molecule: CC1CCC2C(C=CC(C)C2C(=O)c2c(O)c(C3(O)CCC(OC4OC(C(=O)O)C(O)C(O)C4O)C4OC43)cn(O)c2=O)C1 (stereo not shown) [N-hydap-G]
Vmax (HKMs): 7.210 ± 0.72 peak area ratio/min/mg
Vmax (RKMs): 0.8051 ± 0.052 peak area ratio/min/mg
Vmax (HIMs): 1.020 ± 0.066 peak area ratio/min/mg
Vmax (RLMs): 0.0567 ± 0.0014 peak area ratio/min/mg
Vmax (MLMs): 13.46 ± 1.32 peak area ratio/min/mg
Vmax (HLMs): 5.126 ± 1.27 peak area ratio/min/mg
Vmax (MKMs): 3.313 ± 0.51 peak area ratio/min/mg

Molecule: CC[C@@]1(O)C(=O)OCc2c1cc1n(c2=O)Cc2cc3c(CN(C)C)c(O)ccc3nc2-1 [topotecan]
grade 3/4 anemia [3]: 31%
neutropenia [3]: 64%
thrombocytopenia [3]: 18%

B1: UGT1A3 (Homo sapiens) (protein)
chain: GKVLVVPIDGSHWLSMREVLRELHARGHQAVVLTPEVNMHIKEENFFTLTTYAISWTQDEFDRHVLGHTQLYFETEHFLKKFFRSMAMLNNMSLVYHRSCVELLHNEALIRHLNATSFDVVLTDPVNLCAAVLAKYLSIPTVFFLRNIPCDLDFKGTQCPNPSSYIPRLLTTNSDHMTFMQRVKNMLYPLALSYICHAFSAPYASLASELFQREVSVVDILSHASVWLFRGDFVMDYPRPIMPNMVFIGGINCANRKPLSQEFEAYINASGEHGIVVFSLGSMVSEIPEKKAMAIADALGKIPQTVLWRYTGTRPSNLANNTILVKWLPQNDLLGHPMTRAFITHAGSHGVYESICNGVPMVMMPLFGDQMDNAKRMETKGAGVTLNVLEMTSEDLENALKAVINDKSYKENIMRLSSLHKDRPVEPLDLAVFWVEFVMRHKGAPHLRPAAHDLTWYQYHSLDVIGFLLAVVLTVAFITFKCCAYGYRKCLGKKGRVKKAHKSKTH
notes: purchased Cypex (Scotland, UK)
Km [4]: 10.68 µM
Vmax/Km [4]: 942.9 µL/min/mg

B2: UGT1A1 (Homo sapiens) (protein)
chain: HAGKILLIPVDGSHWLSMLGAIQQLQQRGHEIVVLAPDASLYIRDGAFYTLKTYPVPFQREDVKESFVSLGHNVFENDSFLQRVIKTYKKIKKDSAMLLSGCSHLLHNKELMASLAESSFDVMLTDPFLPCSPIVAQYLSLPTVFFLHALPCSLEFEATQCPNPFSYVPRPLSSHSDHMTFLQRVKNMLIAFSQNFLCDVVYSPYATLASEFLQREVTVQDLLSSASVWLFRSDFVKDYPRPIMPNMVFVGGINCLHQNPLSQEFEAYINASGEHGIVVFSLGSMVSEIPEKKAMAIADALGKIPQTVLWRYTGTRPSNLANNTILVKWLPQNDLLGHPMTRAFITHAGSHGVYESICNGVPMVMMPLFGDQMDNAKRMETKGAGVTLNVLEMTSEDLENALKAVINDKSYKENIMRLSSLHKDRPVEPLDLAVFWVEFVMRHKGAPHLRPAAHDLTWYQYHSLDVIGFLLAVVLTVAFITFKCCAYGYRKCLGKKGRVKKAHKSKTH
notes: as for B1
Km [5]: 46.43 µM
Vmax/Km [5]: 99.0 µL/min/mg
